Data taken from patent US5336672A, “Increasing egg production in poultry” (Board of Supervisors of Louisiana State University and …, priority 1992, dated 1994).
Read-outs that look alike come from different tables or passages of the source.

What was measured:
rabbits = conditions: cited from earlier work
turkey breast tissue = conditions: supplemental Cr; Anderson et al. 1989; cited from earlier work
turkey poults = conditions: Steele et al. 1979; Rosebrough et al. 1981; may depend on Cr (III) in an organic form; cited from earlier work
adult men = conditions: Cr supplementation; cited from earlier work
laying hen = conditions: Jensen et al. 1978; cited from earlier work
laying hens [1] = conditions: dietary; Jensen et al. 1980; cited from earlier work
rats = conditions: 200 mg/kg picolinic acid in diet; cited from earlier work
swine = conditions: Hill et al. 1986; cited from earlier work
laying hens [2] = assay: Percentage of egg fat (acid hydrolysis method), Example 1; type: in vivo, Hyline 36 commercial-type laying hens; conditions: for Egg fat: egg of Day 22, SEM .2, chromium quadratic effect P < .10; for Effect on percentage of egg fat: Cr quadratic, P<0.1
Source text: (§1) Hyline 36 commercial-type laying hens were taken from the Louisiana State University Agricultural Center Poultry Unit. The hens were 32-36 weeks of age during the 28 days of the trial. A randomized complete block design was used, and the hens were blocked on location in the barn. Hens were penned individually in cages (0.30×0.41 m) in an open front building. Each of the six treatments described below was replicated ten times, with one hen per replicate. The hens were fed a corn-soybean meal laying hen basal diet for one week. The composition of the diet is set forth in Table 1, and was formulated to meet or exceed the requirements for all nutrients as stated in "Nutrient Requirements of Poultry," National Research Council (1984). The hens were then randomly allotted to a treatment, and were fed the experimental diets during a 28-day trial. The following treatments were used: (1) Corn-soybean meal basal (B), (2) B+50 ppb Cr, (3) B+100 ppb Cr, (4) B+200 ppb Cr, (5) B+400 ppb Cr, and (6) B+800 ppb Cr. Cromium was administered as chromium picolinate. Treatment diets and water were provided on an ad libitum basis.
(§2) Egg production was recorded daily, and eggs were collected on Days 2, 9, 16, and 23 for determination of specific gravity [weight in air/(weight in air-weight in water)] and Haugh units. (Haugh unit=100 Log10 (Albumen height (in mm)+(7.57-(1.7) (Egg mass in grams)^037))). Eggs were collected on Days 0, 7, 14, 21, and 28 for CH analysis. To determine yolk CH, eggs were hard-cooked by immersion in boiling water for 5 min. Yolks were removed and weighed. The entire yolk was blended with a volume of isopropyl alcohol proportional to the yolk weight (10 ml/g of yolk). The cholesterol content of this extract (mg per g wet weight) was determined by an automated procedure based on the Lieberman-Burchard method. One egg was collected on Day 22 for determination of percentage of egg fat using the acid hydrolysis method, and one egg was collected on Day 24 for determination of percentage of egg crude protein by the Kjeldahl N method.
(§3) Data were analyzed by analysis of variance. Linear, quadratic, and cubic contrasts were used to evaluate the treatment effects. Egg production, specific gravity, Haugh units, and CH were measured over time and analyzed by split-plot analyses using hen(trt*rep) as the error term in the model.

laying hens [3] = assay: Percentage of egg crude protein (Kjeldahl N method), Example 1; type: in vivo, Hyline 36 commercial-type laying hens; conditions: for Egg Protein: egg of Day 24, SEM .2, chromium quadratic effect P < .02
Source text: as §1, §2, §3

laying hens [4] = assay: Specific gravity of eggs, Example 1; type: in vivo, Hyline 36 commercial-type laying hens; conditions: for Specific gravity: mean of eggs of Days 2, 9, 16, 23, SEM .001
Source text: as §1, §2, §3

laying hens [5] = assay: Haugh units of eggs, Example 1; type: in vivo, Hyline 36 commercial-type laying hens; conditions: for Haugh units: mean of eggs of Days 2, 9, 16, 23, SEM 1.8
Source text: as §1, §2, §3

laying hens [6] = assay: Egg production, Example 2 (eight-week trial, hens 28-36 weeks of age); type: in vivo, Hyline 36 commercial-type laying hens; conditions: for Egg Production: eight weeks, SEM 2.7
Source text: as §1, §2, §3
(§4) The procedures described in Example 1 were followed, except as noted. The trial lasted eight weeks, and the hens were 28-36 weeks of age during the eight weeks of the trial. The treatments used were (1) Basal (B), (2) B+100 ppb Cr, (3) B+200 ppb Cr, (4) B+300 ppb Cr, and (5) B+400 ppb Cr. Only egg production is reported.

laying hens [7] = assay: Egg yolk cholesterol (Lieberman-Burchard method), Example 1; type: in vivo, Hyline 36 commercial-type laying hens; conditions: for Egg CH (cholesterol): mean of eggs of Days 0, 7, 14, 21, 28, SEM .2
Source text: as §1, §2, §3

laying hens [8] = assay: Egg production, Example 3 (eight-week trial, hens 48-56 weeks of age); type: in vivo, Hyline 36 commercial-type laying hens; conditions: for Egg Production: eight weeks, SEM 4.3
Source text: as §1, §2, §3, §4
The procedures of Example 2 were followed, except that the hens were 48-56 weeks of age during the eight weeks of the trial.

laying hens [9] = assay: Egg production, Example 1 (28-day feeding trial, hens 32-36 weeks of age); type: in vivo, Hyline 36 commercial-type laying hens; conditions: for Egg Production: 28 days, mean of 10 replicates, SEM 2.7, chromium cubic effect P < .03
Source text: as §1, §2, §3

[10] = hens receiving 100 and 200 ppb Cr
[11] = overall, 100-400 ppb Cr, P>0.10

## [Cr] [Cr, chromium]
rabbits
  Cholesterol (CH) accumulation: decreased
  Removal rate of CH already deposited in the aorta: increased
Turkey breast tissue
  Turkey breast tissue: small increase
Turkey poults
  Growth rate of turkey poults: improved
Adult men
  HDL cholesterol: increases
  Serum triglycerides: decreases
Laying hen
  Biological activity in the laying hen: biologically active

## O.O.O.O.O.O.[Cl][Cr]([Cl])[Cl] [CrCl3.6H2 O]
Laying hens [1]
  Effect on egg production: no positive effect

## O=C(O)c1ccccn1 [picolinic acid, pyridine-2-carboxylic acid]
rats
  Growth rates in rats: greater growth rates
swine
  Growth rates: faster growth rates
  Zinc absorption: did not aid zinc absorption

## chromium picolinate
Laying hens [2]; B + 50 ppb Cr in diet
  Egg fat: 10.2%
Laying hens [2]; B + 100 ppb Cr in diet
  Egg fat: 10.6%
Laying hens [2]; B + 200 ppb Cr in diet
  Egg fat: 10.8%
Laying hens [2]; B + 400 ppb Cr in diet
  Egg fat: 10.0%
Laying hens [2]; B + 800 ppb Cr in diet
  Egg fat: 9.9%
Laying hens [2]; hens receiving 50, 400, and 800 ppb Cr
  Effect on percentage of egg fat: lower
Laying hens [2]; [10]
  Effect on percentage of egg fat: higher
Laying hens [3]; B + 50 ppb Cr in diet
  Egg Protein: 12.2%
Laying hens [3]; B + 100 ppb Cr in diet
  Egg Protein: 12.2%
Laying hens [3]; B + 200 ppb Cr in diet
  Egg Protein: 12.2%
Laying hens [3]; B + 400 ppb Cr in diet
  Egg Protein: 12.6%
Laying hens [3]; B + 800 ppb Cr in diet
  Egg Protein: 12.3%
Laying hens [3]; CrPic supplementation to the diet, Cr quadratic, P<0.02
  Effect on percentage of egg crude protein: reduced
Laying hens [4]; B + 50 ppb Cr in diet
  Specific gravity: 1.085
Laying hens [4]; B + 100 ppb Cr in diet
  Specific gravity: 1.084
Laying hens [4]; B + 200 ppb Cr in diet
  Specific gravity: 1.084
Laying hens [4]; B + 400 ppb Cr in diet
  Specific gravity: 1.084
Laying hens [4]; B + 800 ppb Cr in diet
  Specific gravity: 1.085
Laying hens [4]; P>0.1
  Effect on specific gravity: not affected
Laying hens [5]; B + 50 ppb Cr in diet
  Haugh units: 82.6
Laying hens [5]; B + 100 ppb Cr in diet
  Haugh units: 84.6
Laying hens [5]; B + 200 ppb Cr in diet
  Haugh units: 82.0
Laying hens [5]; B + 400 ppb Cr in diet
  Haugh units: 85.0
Laying hens [5]; B + 800 ppb Cr in diet
  Haugh units: 79.7
Laying hens [5]; P>0.1
  Effect on Haugh units: not affected
Laying hens [6]; B + 100 ppb Cr in diet
  Egg Production: 85.2%
Laying hens [6]; B + 200 ppb Cr in diet
  Egg Production: 82.3%
Laying hens [6]; B + 300 ppb Cr in diet
  Egg Production: 84.5%
Laying hens [6]; B + 400 ppb Cr in diet
  Egg Production: 81.6%
Laying hens [6]; at 100 ppb Cr
  Effect on egg production: numerical increase in egg production
Laying hens [6]; [11]
  Effect on egg production: not observed to affect egg production
Laying hens [7]; B + 50 ppb Cr in diet
  Egg CH (cholesterol): 12.1 mg/g yolk
Laying hens [7]; B + 100 ppb Cr in diet
  Egg CH (cholesterol): 11.7 mg/g yolk
Laying hens [7]; B + 200 ppb Cr in diet
  Egg CH (cholesterol): 11.9 mg/g yolk
Laying hens [7]; B + 400 ppb Cr in diet
  Egg CH (cholesterol): 12.1 mg/g yolk
Laying hens [7]; B + 800 ppb Cr in diet
  Egg CH (cholesterol): 11.9 mg/g yolk
Laying hens [7]; CrPic supplementation overall, P>0.1
  Effect on egg CH: not affected
Laying hens [7]; by Day 28 of the trial, Cr quadratic, P<0.05
  Effect on egg CH by Day 28: reduced
Laying hens [7]; [10]
  Effect on egg CH: tended to be lower
Laying hens [8]; B + 100 ppb Cr in diet
  Egg Production: 83.0%
Laying hens [8]; B + 200 ppb Cr in diet
  Egg Production: 82.1%
Laying hens [8]; B + 300 ppb Cr in diet
  Egg Production: 74.8%
Laying hens [8]; B + 400 ppb Cr in diet
  Egg Production: 77.1%
Laying hens [8]; at 100 ppb Cr
  Effect on egg production: numerical increase in egg production
Laying hens [8]; [11]
  Effect on egg production: not observed to affect egg production
Laying hens [9]; B + 50 ppb Cr in diet
  Egg Production: 79.3%
Laying hens [9]; B + 100 ppb Cr in diet
  Egg Production: 81.1%
Laying hens [9]; B + 200 ppb Cr in diet
  Egg Production: 83.2%
Laying hens [9]; B + 400 ppb Cr in diet
  Egg Production: 76.1%
Laying hens [9]; B + 800 ppb Cr in diet
  Egg Production: 77.7%
Laying hens [9]; at 400 and 800 ppb Cr, Cr cubic, P<0.03
  Effect on egg production: decreased
Laying hens [9]; in the diet, from the experiments of Examples 1-3
  Optimum dosage of CrPic for egg production: 100-200 ppb Cr
Laying hens [9]; supplementing the diet with CrPic, summary statement
  Effect on egg production: incrementally increased in some circumstances
Laying hens [9]; through 200 ppb Cr, Cr cubic, P<0.03
  Effect on egg production: increased
